For twelve molecules, IC50 results are on record in patent US11447466B2, “Substituted indole compounds useful as inhibitors of TLR7/8/9” (BRISTOL-MYERS SQUIBB COMPANY, priority 2017, dated 2022).

What all share (format): cell-based
In test [1] the target is T1, human TLR7 (Homo sapiens, UniProt Q9NYK1).
T1 construct: host or cells: HEK-Blue cells
T1 sequence (Q9NYK1 27-1049): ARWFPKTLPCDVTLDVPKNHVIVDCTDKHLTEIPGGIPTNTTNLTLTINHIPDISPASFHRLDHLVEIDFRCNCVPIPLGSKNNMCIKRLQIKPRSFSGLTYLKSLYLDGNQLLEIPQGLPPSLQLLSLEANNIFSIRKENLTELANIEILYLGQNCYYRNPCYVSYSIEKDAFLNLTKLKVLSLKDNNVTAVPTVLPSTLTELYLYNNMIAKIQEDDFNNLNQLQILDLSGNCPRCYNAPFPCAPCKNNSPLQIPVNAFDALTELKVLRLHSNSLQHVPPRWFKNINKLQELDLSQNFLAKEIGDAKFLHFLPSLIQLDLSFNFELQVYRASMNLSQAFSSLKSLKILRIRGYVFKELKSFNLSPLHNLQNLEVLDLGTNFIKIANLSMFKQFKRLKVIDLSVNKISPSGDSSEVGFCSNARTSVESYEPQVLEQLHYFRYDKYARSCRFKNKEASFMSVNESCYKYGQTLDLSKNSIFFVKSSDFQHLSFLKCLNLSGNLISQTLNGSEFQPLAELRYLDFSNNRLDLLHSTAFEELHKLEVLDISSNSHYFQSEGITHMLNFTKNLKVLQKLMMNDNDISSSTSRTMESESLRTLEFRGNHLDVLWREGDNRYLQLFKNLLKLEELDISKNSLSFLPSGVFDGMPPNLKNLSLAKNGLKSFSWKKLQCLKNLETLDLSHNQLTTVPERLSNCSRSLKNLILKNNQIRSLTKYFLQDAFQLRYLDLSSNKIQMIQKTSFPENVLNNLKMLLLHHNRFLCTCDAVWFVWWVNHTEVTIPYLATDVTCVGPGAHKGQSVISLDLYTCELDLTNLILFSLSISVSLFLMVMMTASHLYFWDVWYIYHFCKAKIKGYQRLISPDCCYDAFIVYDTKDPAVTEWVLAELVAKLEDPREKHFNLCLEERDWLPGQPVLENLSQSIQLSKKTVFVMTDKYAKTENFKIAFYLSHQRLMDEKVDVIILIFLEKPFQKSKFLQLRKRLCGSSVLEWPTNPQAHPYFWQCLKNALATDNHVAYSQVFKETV
As to the kind of experiment: TLR7 inhibition reporter assay (HEK-Blue SEAP reporter, gardiquimod stimulation). The conditions noted are these: HEK-Blue cells overexpressing human TLR7, SEAP reporter, gardiquimod 7.5 μM, 22 hour incubation. Put shortly: (§1)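 Compound treatment: 30 min, RT, 0.05 nM–50 μM final. Agonist: TLR7 gardiquimod 7.5 μM; TLR8 R848 15.9 μM; TLR9 ODN2006 5 nM. Incubation 22 h, 37 °C, 5% CO2. Readout SEAP, HEK-Blue Detection.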
In general terms: Reporter assays use an easily measured gene product as a stand-in for the process of interest.

Test [2] deals with T2, human TLR9 (Homo sapiens, UniProt Q9NR96).
T2 construct: host or cells: HEK-Blue cells
T2 sequence (Q9NR96 26-1032): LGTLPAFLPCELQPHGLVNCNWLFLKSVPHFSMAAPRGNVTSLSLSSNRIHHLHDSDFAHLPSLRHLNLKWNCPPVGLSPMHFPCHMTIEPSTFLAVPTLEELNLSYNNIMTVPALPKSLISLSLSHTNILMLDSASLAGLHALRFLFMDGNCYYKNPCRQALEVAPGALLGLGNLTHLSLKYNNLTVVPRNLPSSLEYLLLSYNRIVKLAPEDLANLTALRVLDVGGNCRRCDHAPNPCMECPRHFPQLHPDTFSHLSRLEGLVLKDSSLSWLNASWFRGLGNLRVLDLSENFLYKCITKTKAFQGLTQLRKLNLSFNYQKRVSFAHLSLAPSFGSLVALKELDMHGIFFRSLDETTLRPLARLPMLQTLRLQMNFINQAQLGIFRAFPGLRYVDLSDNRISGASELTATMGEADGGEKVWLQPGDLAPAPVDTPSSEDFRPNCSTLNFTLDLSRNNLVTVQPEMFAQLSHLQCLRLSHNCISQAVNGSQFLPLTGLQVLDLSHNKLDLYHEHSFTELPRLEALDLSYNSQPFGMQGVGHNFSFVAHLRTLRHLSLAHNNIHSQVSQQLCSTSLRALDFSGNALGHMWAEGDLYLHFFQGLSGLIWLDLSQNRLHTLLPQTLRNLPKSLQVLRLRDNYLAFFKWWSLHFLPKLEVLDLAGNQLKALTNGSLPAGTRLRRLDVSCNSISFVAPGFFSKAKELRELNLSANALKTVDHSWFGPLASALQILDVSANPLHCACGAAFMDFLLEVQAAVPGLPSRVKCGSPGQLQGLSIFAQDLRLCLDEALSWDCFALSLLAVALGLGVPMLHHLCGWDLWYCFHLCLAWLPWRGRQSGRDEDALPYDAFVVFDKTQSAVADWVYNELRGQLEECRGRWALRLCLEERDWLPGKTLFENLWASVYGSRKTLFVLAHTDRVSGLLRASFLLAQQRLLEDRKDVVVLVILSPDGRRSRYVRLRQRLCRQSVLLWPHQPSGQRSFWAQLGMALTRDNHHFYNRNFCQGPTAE
As to the kind of experiment: TLR9 inhibition reporter assay (HEK-Blue SEAP reporter, ODN2006 stimulation). The conditions noted are these: HEK-Blue cells overexpressing human TLR9, SEAP reporter, ODN2006 5 nM, 22 hour incubation. The gist of the method: as §1

In test [3] the target is T3, human TLR8 (Homo sapiens, UniProt Q9NR97).
T3 construct: host or cells: HEK-Blue cells
T3 sequence (Q9NR97 27-1041): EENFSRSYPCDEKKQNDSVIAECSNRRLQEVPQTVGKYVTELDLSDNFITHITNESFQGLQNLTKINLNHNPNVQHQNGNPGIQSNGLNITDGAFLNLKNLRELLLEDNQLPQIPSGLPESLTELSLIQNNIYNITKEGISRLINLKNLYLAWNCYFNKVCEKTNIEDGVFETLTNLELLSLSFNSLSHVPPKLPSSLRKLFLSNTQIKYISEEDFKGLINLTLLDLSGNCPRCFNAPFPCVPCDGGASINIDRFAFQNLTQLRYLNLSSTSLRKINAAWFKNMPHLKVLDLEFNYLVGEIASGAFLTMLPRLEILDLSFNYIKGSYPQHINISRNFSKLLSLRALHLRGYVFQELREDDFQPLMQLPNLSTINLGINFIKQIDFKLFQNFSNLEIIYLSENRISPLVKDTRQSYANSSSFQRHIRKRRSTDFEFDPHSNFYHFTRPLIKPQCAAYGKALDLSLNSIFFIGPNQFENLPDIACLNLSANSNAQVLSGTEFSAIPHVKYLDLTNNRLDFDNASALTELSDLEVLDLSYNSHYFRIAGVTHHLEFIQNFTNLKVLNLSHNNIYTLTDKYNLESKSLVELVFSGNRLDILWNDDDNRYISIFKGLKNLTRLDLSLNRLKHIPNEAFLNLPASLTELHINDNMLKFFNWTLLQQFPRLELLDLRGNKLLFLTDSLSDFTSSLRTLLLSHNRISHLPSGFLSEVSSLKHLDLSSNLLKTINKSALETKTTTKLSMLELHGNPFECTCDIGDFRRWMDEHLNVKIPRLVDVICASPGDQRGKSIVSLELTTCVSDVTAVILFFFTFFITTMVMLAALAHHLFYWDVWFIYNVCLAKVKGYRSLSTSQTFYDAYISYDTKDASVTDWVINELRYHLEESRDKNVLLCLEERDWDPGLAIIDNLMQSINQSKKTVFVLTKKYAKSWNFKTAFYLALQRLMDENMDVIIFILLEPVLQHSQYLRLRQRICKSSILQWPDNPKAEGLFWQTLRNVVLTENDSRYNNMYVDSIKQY
As to the kind of experiment: TLR8 inhibition reporter assay (HEK-Blue SEAP reporter, R848 stimulation). The conditions noted are these: HEK-Blue cells overexpressing human TLR8, SEAP reporter, R848 15.9 μM, 22 hour incubation. Put shortly:
as §1

The structures appear in SMILES notation. Bounds are passed on as bounds.

Usually IC50 stands for the concentration that gives 50% inhibition. Low readings indicate inhibition by little substance, high ones a need for much substance.

Take `CNC(=O)CN1CCC(c2ccc3[nH]c(-c4cc(C)c(=O)n(CCOC)c4)c(C(C)C)c3c2)CC1` [Example 160, 2-(4-(3-isopropyl-2-(1-(2-methoxyethyl)-5-methyl-6-oxo-1,6-dihydropyridin-3-yl)-1H-indol-5-yl)piperidin-1-yl)-N-methylacetamide]: the IC50 in test [1] came out at 8.9 nM; in test [2], 14700 nM; in test [3], 14.5 nM.
The corresponding values for `Cc1cc(-c2[nH]c3ccc(C4CCN(C(=O)C(C)(C)CO)CC4)cc3c2C(C)C)cn(C)c1=O` [Example 304, 5-(5-(1-(3-hydroxy-2,2-dimethylpropanoyl)piperidin-4-yl)-3-isopropyl-1H-indol-2-yl)-1,3-dimethylpyridin-2(1H)-one] are 7.8 nM, no less than 50000 nM and 80 nM.
The like results for `CCCN1CCC(c2ccc3[nH]c(-c4cc(-c5ccc(N6CCOCC6)nc5)c(=O)n(C)c4)c(C(C)C)c3c2)CC1` [Example 330, 5-(3-isopropyl-5-(1-propylpiperidin-4-yl)-1H-indol-2-yl)-1-methyl-6′-morpholino-[3,3′-bipyridin]-2(1H)-one] were, in that order, 7.7 nM, 705 nM and 432 nM.
The corresponding values for `Cc1cc(-c2[nH]c3ccc(C4CCN(C)CC4)cc3c2C(C)C)cn(CC(F)(F)F)c1=O` [Example 265, 5-(3-isopropyl-5-(1-methylpiperidin-4-yl)-1H-indol-2-yl)-3-methyl-1-(2,2,2-trifluoroethyl)pyridin-2(1H)-one] are 20.1 nM, 5030 nM and 42.6 nM.
For the molecule `Cc1cc(-c2[nH]c3ccc(C4CCN([C@H]5COCC[C@@H]5O)CC4)cc3c2C(C)C)cn(C)c1=O` [Example 314, 5-(5-(1-((3S,4S)-4-hydroxytetrahydro-2H-pyran-3-yl)piperidin-4-yl)-3-isopropyl-1H-indol-2-yl)-1,3-dimethylpyridin-2(1H)-one], the IC50 is 5.2 nM in test [1], 10100 nM in test [2] and 5.1 nM in test [3].
The like results for `Cc1cc(-c2[nH]c3ccc(C4CCN(C5CCC(C(C)(C)O)CC5)CC4)cc3c2C(C)C)cn(C)c1=O` (stereo not drawn) [Example 270, 5-(5-(1-(4-(2-hydroxypropan-2-yl)cyclohexyl)piperidin-4-yl)-3-isopropyl-1H-indol-2-yl)-1,3-dimethylpyridin-2(1H)-one] were, in that order, 2.1 nM, 4160 nM and 4.7 nM.
Take `COc1c(C)c(-c2[nH]c3ccc(C4CCN(CC(C)(C)O)CC4)cc3c2C(C)C)cn(C)c1=O` [Example 317, 5-(5-(1-(2-hydroxy-2-methylpropyl)piperidin-4-yl)-3-isopropyl-1H-indol-2-yl)-3-methoxy-1,4-dimethylpyridin-2(1H)-one]: the IC50 in test [1] worked out at 19.3 nM; in test [2], 3580 nM; in test [3], 7.2 nM.
The corresponding values for `Cc1c(-c2[nH]c3ccc(C4CCN(C(=O)CN(C)C)CC4)cc3c2C(C)C)cn(C)c(=O)c1C` [Example 280, 5-(5-(1-(dimethylglycyl)piperidin-4-yl)-3-isopropyl-1H-indol-2-yl)-1,3,4-trimethylpyridin-2(1H)-one] are 6.1 nM, 4570 nM and 9 nM.
The like results for `Cc1cc(-c2[nH]c3ccc(C4CCN(C(=O)C(C)(C)N)CC4)cc3c2C(C)C)cn(C)c1=O` [Example 296, 5-(5-(1-(2-amino-2-methylpropanoyl)piperidin-4-yl)-3-isopropyl-1H-indol-2-yl)-1,3-dimethylpyridin-2(1H)-one] were, in that order, 1.1 nM, 4310 nM and 3 nM.
The corresponding values for `CC(C)c1c(-c2cc(-c3cncnc3)c(=O)n(C)c2)[nH]c2ccc(C3CCN(CCCC(F)(F)F)CC3)cc12` [Example 104, 5-(3-isopropyl-5-(1-(4,4,4-trifluorobutyl)piperidin-4-yl)-1H-indol-2-yl)-1-methyl-3-(pyrimidin-5-yl)pyridin-2(1H)-one] are 13.1 nM, 2700 nM and 3.5 nM.
On to `CC(C)c1c(-c2cc(-c3ccc(F)nc3)c(=O)n(C)c2)[nH]c2ccc(C3CCN(C(C)C)CC3)cc12` [Example 342, 6′-fluoro-5-(3-isopropyl-5-(1-isopropylpiperidin-4-yl)-1H-indol-2-yl)-1-methyl-[3,3′-bipyridin]-2(1H)-one], for which the IC50 in test [1] was determined as 12.9 nM; in test [2], 3330 nM; in test [3], 16 nM.
Regarding `Cc1c(-c2[nH]c3ccc(C4CCN(C(=O)CN(C)C)CC4)cc3c2C(C)C)nn(C)c(=O)c1C` [Example 283, 6-(5-(1-(dimethylglycyl)piperidin-4-yl)-3-isopropyl-1H-indol-2-yl)-2,4,5-trimethylpyridazin-3(2H)-one], the values for the IC50 in test [1], in test [2] and in test [3] were 512 nM, 6250 nM and 46.8 nM, respectively.
